# Measurements published in the supplement of paper PMC11451515.
# Test system: SEM cells
# Test: cell viability relative to DMSO control; higher = less cytotoxic
# Details: 48 h
# Summary of the method: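 In 1536-well plates, 5 μl of leukemia cells were seeded per well: 500 cells/well for NOMO1 or SEM and 1000 cells/well for P12-Ichikawa. Each line had first been adapted for at least four passages in each medium. Library compounds in DMSO were pin-dosed at 11 threefold concentrations between 47 μM and 0.79 nM, and CellTiter-Glo One luminescence was read after 48 h at 37°C. Viability is a per-plate percentage relative to DMSO wells, with cell-free wells as background.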
# [1] = HPLM + 10% dialyzed FBS, 0.000781 µM
# [2] = HPLM + 10% dialyzed FBS, 0.00234 µM
# [3] = HPLM + 10% dialyzed FBS, 0.00702 µM
# [4] = HPLM + 10% dialyzed FBS, 0.0211 µM
# [5] = HPLM + 10% dialyzed FBS, 0.0632 µM
# [6] = HPLM + 10% dialyzed FBS, 0.19 µM
# [7] = HPLM + 10% dialyzed FBS, 0.569 µM
# [8] = HPLM + 10% dialyzed FBS, 1.71 µM
# [9] = HPLM + 10% dialyzed FBS, 5.12 µM
# [10] = HPLM + 10% dialyzed FBS, 15.4 µM
# [11] = HPLM + 10% dialyzed FBS, 46.1 µM
# [12] = RPMI 5 mM glucose + 10% FBS, 0.000781 µM
# [13] = RPMI 5 mM glucose + 10% FBS, 0.00234 µM
# [14] = RPMI 5 mM glucose + 10% FBS, 0.00702 µM
# [15] = RPMI 5 mM glucose + 10% FBS, 0.0211 µM
# [16] = RPMI 5 mM glucose + 10% FBS, 0.0632 µM
# [17] = RPMI 5 mM glucose + 10% FBS, 0.19 µM
# [18] = RPMI 5 mM glucose + 10% FBS, 0.569 µM
# [19] = RPMI 5 mM glucose + 10% FBS, 1.71 µM
# [20] = RPMI 5 mM glucose + 10% FBS, 5.12 µM
# [21] = RPMI 5 mM glucose + 10% FBS, 15.4 µM
# [22] = RPMI 5 mM glucose + 10% FBS, 46.1 µM
# [23] = RPMI 5 mM glucose + 10% dialyzed FBS, 0.000781 µM
# [24] = RPMI 5 mM glucose + 10% dialyzed FBS, 0.00234 µM
# [25] = RPMI 5 mM glucose + 10% dialyzed FBS, 0.00702 µM
# [26] = RPMI 5 mM glucose + 10% dialyzed FBS, 0.0211 µM
# [27] = RPMI 5 mM glucose + 10% dialyzed FBS, 0.0632 µM
# [28] = RPMI 5 mM glucose + 10% dialyzed FBS, 0.19 µM
# [29] = RPMI 5 mM glucose + 10% dialyzed FBS, 0.569 µM
# [30] = RPMI 5 mM glucose + 10% dialyzed FBS, 1.71 µM
# [31] = RPMI 5 mM glucose + 10% dialyzed FBS, 5.12 µM
# [32] = RPMI 5 mM glucose + 10% dialyzed FBS, 15.4 µM
# [33] = RPMI 5 mM glucose + 10% dialyzed FBS, 46.1 µM
compound,measurement,setting,value
COc1cccc2c1C(=O)c1c(O)c3c(c(O)c1C2=O)C[C@@](O)(C(=O)CO)C[C@@H]3O[C@H]1C[C@H](N)[C@H](O[C@H]2CCCCO2)[C@H](C)O1,cell viability,[1],101%
same,cell viability,[2],106%
same,cell viability,[3],111%
same,cell viability,[4],103%
same,cell viability,[5],102%
same,cell viability,[6],129%
same,cell viability,[7],102%
same,cell viability,[8],81.8%
same,cell viability,[9],13%
same,cell viability,[10],109%
same,cell viability,[11],72.2%
same,cell viability,[12],79.7%
same,cell viability,[13],84.3%
same,cell viability,[14],89.5%
same,cell viability,[15],91%
same,cell viability,[16],65.2%
same,cell viability,[17],96.1%
same,cell viability,[18],66.6%
same,cell viability,[19],44.8%
same,cell viability,[20],7.83%
same,cell viability,[21],95.8%
same,cell viability,[22],59%
same,cell viability,[23],92.9%
same,cell viability,[24],110%
same,cell viability,[25],119%
same,cell viability,[26],123%
same,cell viability,[27],117%
same,cell viability,[28],115%
same,cell viability,[29],95.8%
same,cell viability,[30],77.3%
same,cell viability,[31],18.3%
same,cell viability,[32],126%
same,cell viability,[33],105%
O=C(NCCCCN1CCOCC1)c1cc2ccccc2o1,cell viability,[12],102%
same,cell viability,[13],122%
same,cell viability,[14],112%
same,cell viability,[15],123%
same,cell viability,[16],121%
same,cell viability,[17],114%
same,cell viability,[18],96.6%
same,cell viability,[19],93.6%
same,cell viability,[20],99.9%
same,cell viability,[21],92.8%
same,cell viability,[22],98.4%
C[C@@H](NCCCc1cccc(C(F)(F)F)c1)c1cccc2ccccc12,cell viability,[1],121%
same,cell viability,[2],119%
same,cell viability,[3],116%
same,cell viability,[4],117%
same,cell viability,[5],118%
same,cell viability,[6],111%
same,cell viability,[7],120%
same,cell viability,[8],122%
same,cell viability,[9],113%
same,cell viability,[10],106%
same,cell viability,[11],105%
same,cell viability,[12],112%
same,cell viability,[13],124%
same,cell viability,[14],119%
same,cell viability,[15],131%
same,cell viability,[16],107%
same,cell viability,[17],113%
same,cell viability,[18],116%
same,cell viability,[19],114%
same,cell viability,[20],96.5%
same,cell viability,[21],94.3%
same,cell viability,[22],111%
O=C(CCCCCCC(=O)Nc1cccnc1)NO,cell viability,[1],78.3%
same,cell viability,[2],106%
same,cell viability,[3],96.7%
same,cell viability,[4],97.2%
same,cell viability,[5],114%
same,cell viability,[6],104%
same,cell viability,[7],108%
same,cell viability,[8],88.5%
same,cell viability,[9],76.8%
same,cell viability,[10],17.6%
same,cell viability,[11],6.38%
same,cell viability,[12],101%
same,cell viability,[13],105%
same,cell viability,[14],102%
same,cell viability,[15],106%
same,cell viability,[16],101%
same,cell viability,[17],115%
same,cell viability,[18],97.5%
same,cell viability,[19],77.2%
same,cell viability,[20],81.7%
same,cell viability,[21],11.9%
same,cell viability,[22],5.78%
same,cell viability,[23],87.8%
same,cell viability,[24],93.6%
same,cell viability,[25],89.2%
same,cell viability,[26],101%
same,cell viability,[27],95.5%
same,cell viability,[28],99%
same,cell viability,[29],105%
same,cell viability,[30],81.9%
same,cell viability,[31],64%
same,cell viability,[32],13.5%
same,cell viability,[33],6.39%
CC[S+](=O)([O-])Nc1ccc2c(c1)/C(=C(/Nc1ccc(CN3CCCCC3)cc1)c1ccccc1)C(=O)N2,cell viability,[1],117%
same,cell viability,[2],112%
same,cell viability,[3],108%
same,cell viability,[4],95.5%
same,cell viability,[5],71.3%
same,cell viability,[6],27.8%
same,cell viability,[7],23.9%
same,cell viability,[8],19.4%
same,cell viability,[9],18.5%
same,cell viability,[10],5.02%
same,cell viability,[11],3.36%
same,cell viability,[12],110%
same,cell viability,[13],108%
same,cell viability,[14],111%
same,cell viability,[15],108%
same,cell viability,[16],89.1%
same,cell viability,[17],17.9%
same,cell viability,[18],18.1%
same,cell viability,[19],13.8%
same,cell viability,[20],10%
same,cell viability,[21],3.47%
same,cell viability,[22],2.27%
same,cell viability,[23],118%
same,cell viability,[24],110%
same,cell viability,[25],126%
same,cell viability,[26],103%
same,cell viability,[27],89.7%
same,cell viability,[28],18.5%
same,cell viability,[29],16.3%
same,cell viability,[30],13.6%
same,cell viability,[31],11.5%
same,cell viability,[32],6.15%
same,cell viability,[33],2.34%
